Measurements published in PMC4848734, “Purification and Characterization of a Novel Intracellular Sucrase Enzyme of Leishmania donovani Promastigotes” (Biochemistry Research International, 2016).

How the values were obtained:
[1] = tested on: T1, intracellular sucrase; test: colorimetric glucose release ([…] nm), Lineweaver-Burk; format: biochemical, Leishmania donovani; settings: 50 mM sodium acetate, pH 6.0, 30°C, 30 min; 0.4-5.0 mM sucrose; purified enzyme
T1 construct: native purification from promastigote cell-free extract; ~56 kDa subunit (SDS-PAGE), ~112 kDa native, proposed homodimer; gene not identified

[2] = molecular target: intracellular sucrase of Leishmania donovani promastigotes (Leishmania donovani (endogenous in promastigotes, strain MOHM/IN/1978/UR6)); test: SEC; Sephacryl S-200 column (120 x 1 cm), Buffer A (50 mM Tris-HCl, pH 7.4), 22 mL/hr; ammonium sulfate fraction of cell-free extract, sucrase followed by activity; native size from calibration graph compared with the subunit size in 10% SDS-PAGE

Row | Compound | Km [1] [µM] | stoichiometry N [2]
1 | OC[C@H]1O[C@@](CO)(O[C@H]2O[C@H](CO)[C@@H](O)[C@H](O)[C@H]2O)[C@@H](O)[C@@H]1O [sucrose] | 1610 | –
2 | intracellular sucrase of Leishmania donovani promastigotes (enzyme) | – | 2
